Data as given in US20080261999A1, “Azabicycloalkane Derivatives Useful as Nicotinic Acetylcholine Receptor Agonists” (priority 2005, published 2008).

What was measured:
human α4β2 nAChRs = target: T1, human α4β2 nAChRs (Homo sapiens, UniProt P17787+P43681); experiment: Nicotinic receptor radioligand binding SPA, [3H]-epibatidine, α4β2
T1 construct: expressed in transfected cells; host or cells: HEK-293
Method: (§1) Cell pastes from large-scale production of HEK-293 cells expressing human α4β2, or α3β4 nAChRs are homogenised in 4 volumes of the appropriate buffer (50 mM Tris.HCl containing 150 mM NaCl and 5 mM KCl, pH 7.4). The homogenate is centrifuged twice (40,000 g, 10 minutes, 4° C.) and the pellets re-suspended in 4 volumes of Tris.HCl buffer after the first spin and 8 volumes after the second spin. The re-suspended homogenate is centrifuged (100 g, 10 minutes, 4° C.) and the supernatant kept and re-centrifuged (40,000 g, 20 minutes, 4° C.). The pellet is re-suspended in Tris.HCl buffer supplemented with 10% w/v sucrose. The membrane preparation is stored in 1 ml aliquots at −80° C. until required. The protein concentration of the membrane preparation is determined using a BCA protein assay reagent kit.
(§2) 96-well SPA radioligand binding assays are performed in a final volume of 250 μl Tris-HCl buffer (50 mM Tris-HCl, 150 mM NaCl, 5 mM KCl, pH 7.4) with 1 nM ((α4β2) or 2 nM (α3β4) [^3H]-epibatidine (53 Ci/mmol; Amersham); 1 mg/well ((α4β2) or 1.5 mg/well (α3β4) WGA-coated PVT SPA beads (Amersham) and 30 μg/well membrane protein for all 3 assay types. Non-specific binding (<10% for all 3 assay types) is determined using 10 μM epibatidine.
(§3) Reactions are allowed to equilibrate for 2-4 hours at room temperature prior to reading on a Trilux Scintillation counter (Perkin Elmer). […]

rat striatal slices = experiment: [3H] Dopamine release assay from rat striatal slices; type: cell-based
Method: [^3H] Dopamine Release Assay from Rat Striatal Slices
Release of [^3H]dopamine from rat striatal slices is performed as follows. Male Lister-Hooded rats (250-350 g) are sacrificed by exposure to CO2 followed by cervical dislocation. Striata from 2 rats is dissected and chopped 3 times at 150 μm using a Mcllwain tissue chopper, each time rotating the tissue through 60°. Slices are dispersed in Krebs bicarbonate buffer (118 mM NaCl, 2.4 mM KCl, 2.4 mM CaCl2.2H2O, 1.2 mM KH2PO4, 1.2 mM MgSO4.7H2O, 25 mM NaHCO3, 10 mM glucose, 1 mM ascorbic acid, gassed with 5% CO2/95% O2 for 1 h, pH 7.4) including […] pargyline, and incubated with [^3H]dopamine (50 nM) for 30 minutes at 37° C. […]
Optiphase Supermix (Wallac) scintillation fluid (170 μl) is added to each well of the collection plates prior to plates being heat sealed and radioactivity quantified using a Wallac 1450 Microbeta 96-well plate counter (Wallac Oy, Turku, Finland, counting efficiency 25%). Radioactivity remaining in the slices is measured by digestion of the tissue in 0.2 ml Solvable (Packard Biosciences) for 1 h followed by addition of 0.5 ml isopropyl alcohol and 4.5 ml Hlionic Fluor scintillation fluid (Packard Biosciences). Radioactivity was then quantified using a Wallac 1410 scintillation counter (Wallac Oy, Turku, Finland, counting efficiency 35%). […]

human α3β4 nAChRs = target: T2, human α3β4 nAChRs (Homo sapiens, UniProt P30926+P32297); experiment: Nicotinic receptor radioligand binding SPA, [3H]-epibatidine, α3β4; details: HEK-293 membranes, 2 nM [3H]-epibatidine
T2 construct: expressed in transfected cells; host or cells: HEK-293
Method: as §1, §2, §3

T1 sequence (P43681 29-627): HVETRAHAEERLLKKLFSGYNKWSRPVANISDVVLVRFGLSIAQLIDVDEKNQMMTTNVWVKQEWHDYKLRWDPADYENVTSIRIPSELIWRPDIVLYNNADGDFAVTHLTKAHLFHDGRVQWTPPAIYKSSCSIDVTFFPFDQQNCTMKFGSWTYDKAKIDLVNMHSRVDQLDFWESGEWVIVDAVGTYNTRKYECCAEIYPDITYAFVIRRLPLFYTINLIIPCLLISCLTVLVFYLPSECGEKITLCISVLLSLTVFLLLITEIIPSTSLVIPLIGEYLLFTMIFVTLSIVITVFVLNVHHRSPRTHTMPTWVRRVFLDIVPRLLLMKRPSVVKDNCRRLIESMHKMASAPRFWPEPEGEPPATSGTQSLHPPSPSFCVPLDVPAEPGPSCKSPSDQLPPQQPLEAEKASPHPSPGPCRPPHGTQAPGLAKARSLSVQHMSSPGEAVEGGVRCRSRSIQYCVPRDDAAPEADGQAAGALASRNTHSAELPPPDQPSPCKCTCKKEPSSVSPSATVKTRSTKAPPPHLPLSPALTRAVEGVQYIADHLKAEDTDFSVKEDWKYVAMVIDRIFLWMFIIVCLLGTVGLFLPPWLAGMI
T1 sequence (P17787 26-502): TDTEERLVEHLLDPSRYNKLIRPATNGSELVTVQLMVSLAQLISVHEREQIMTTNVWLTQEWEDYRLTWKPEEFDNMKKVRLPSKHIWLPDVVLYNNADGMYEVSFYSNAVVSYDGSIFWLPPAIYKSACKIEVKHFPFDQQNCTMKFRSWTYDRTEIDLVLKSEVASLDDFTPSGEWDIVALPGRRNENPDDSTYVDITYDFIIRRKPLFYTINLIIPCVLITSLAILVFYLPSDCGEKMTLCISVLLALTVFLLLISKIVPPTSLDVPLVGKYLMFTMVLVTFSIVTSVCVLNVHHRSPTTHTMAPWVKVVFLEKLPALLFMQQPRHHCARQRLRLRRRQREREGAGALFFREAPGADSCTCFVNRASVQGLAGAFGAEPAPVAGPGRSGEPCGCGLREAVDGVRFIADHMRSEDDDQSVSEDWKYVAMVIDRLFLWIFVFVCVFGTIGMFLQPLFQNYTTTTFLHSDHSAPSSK
T2 sequence (P32297 32-505): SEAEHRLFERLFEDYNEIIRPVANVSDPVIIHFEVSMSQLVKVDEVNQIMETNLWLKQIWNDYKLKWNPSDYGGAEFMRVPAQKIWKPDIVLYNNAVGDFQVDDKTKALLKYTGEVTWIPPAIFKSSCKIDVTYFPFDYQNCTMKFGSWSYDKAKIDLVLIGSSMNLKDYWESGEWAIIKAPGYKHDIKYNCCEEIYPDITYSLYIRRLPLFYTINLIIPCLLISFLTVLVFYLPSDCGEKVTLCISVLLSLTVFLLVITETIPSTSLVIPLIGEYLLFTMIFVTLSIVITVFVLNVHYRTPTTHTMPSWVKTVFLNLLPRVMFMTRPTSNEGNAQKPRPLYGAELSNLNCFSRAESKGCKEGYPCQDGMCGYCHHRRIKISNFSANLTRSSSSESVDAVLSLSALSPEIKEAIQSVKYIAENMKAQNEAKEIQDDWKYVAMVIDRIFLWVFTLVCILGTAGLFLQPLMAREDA
T2 sequence (P30926 22-498): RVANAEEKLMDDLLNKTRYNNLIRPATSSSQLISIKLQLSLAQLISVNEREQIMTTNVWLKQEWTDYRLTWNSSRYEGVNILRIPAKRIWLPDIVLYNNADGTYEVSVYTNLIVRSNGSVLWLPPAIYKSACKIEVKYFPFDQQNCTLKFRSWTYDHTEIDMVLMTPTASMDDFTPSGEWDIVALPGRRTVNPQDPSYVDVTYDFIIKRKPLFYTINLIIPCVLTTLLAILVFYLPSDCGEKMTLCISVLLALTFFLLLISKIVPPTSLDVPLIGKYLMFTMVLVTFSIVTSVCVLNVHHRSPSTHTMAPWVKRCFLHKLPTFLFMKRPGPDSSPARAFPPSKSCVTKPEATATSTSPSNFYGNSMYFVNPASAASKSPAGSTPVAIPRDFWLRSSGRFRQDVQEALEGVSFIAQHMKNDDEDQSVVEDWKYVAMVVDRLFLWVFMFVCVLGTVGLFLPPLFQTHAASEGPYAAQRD

Fc1cc(C2=CC3CNCC(C2)C3)cc(-c2ccoc2)c1 (centres unmarked) [Example 20] was tested, and the Ki (human α4β2 nAChRs; HEK-293 membranes, 1 nM [3H]-epibatidine) was 5.37 nM, the “Ki α3β4/Ki α4β2” value (human α4β2 nAChRs; selectivity for α4β2 over α3β4) was 89.2 and the EC50 (rat striatal slices) was 135 nM. For the same molecule, the “Efficacy Dopamine release %” value (rat striatal slices) was 41.7% and the Ki (human α3β4 nAChRs) was 479 nM.
